Data set [1] can be described thus: In vitro stability in human blood plasma (TLC). Type of data set: in vitro ADME. Particulars: 37 °C, whole incubation period of 24 h. The procedure:
The ^67Ga-labeled DX600-radiopeptides (20 MBq/nmol) were incubated in human and mouse plasma (10 MBq/200 µL), respectively, at 37 °C. Aliquots were taken at variable time points up to 24 h for analysis using reversed phase thin layer chromatography (TLC) with citrate buffer (0.1 M, pH 5.5) as a mobile phase. Images of the TLC plates were obtained using a storage phosphor system (Cyclone Plus, PerkinElmer) and quantified using the OptiQuant software (version 5.0, Bright Instrument Co Ltd., PerkinElmer™) (Supplementary Information).
The radiopeptides were prepared and TLC experiments were performed immediately after radiolabeling by applying the diluted radiopeptides in saline (1 µL; ~0.05 MBq) and [^67Ga]GaCl3 solution (1 µL; ~0.05 MBq) on the TLC plates. The radiopeptides were incubated in mouse or human plasma (10 MBq/200 µL) at 37° C. TLC was performed with an aliquot of the plasma samples at the given timepoints (30 min, 1 h, 3 h and 24 h). The TLC plates were exposed to a phosphor screen followed by development using a storage phosphor system (Cyclone Plus, PerkinElmer). The quantification of the signals was carried out using the OptiQuant software (version 5.0, Bright Instrument Co Ltd., PerkinElmer^TM). The obtained chromatograms were analyzed by determination of the peak area of the radiolabeled peptide, the released gallium-67 as well as degradation products of unknown structure. The quantity of the intact product was expressed as percentage of the sum of integrated peak areas of the entire chromatogram.

A short description of data set [2]: Biodistribution in HEK-ACE2/HEK-ACE xenografted mice. It counts as in vivo, mouse. Particulars: female, CD1/nude, mouse, iv, 0.5 nmol, total radioactivity, 3 h after i.v. injection, decay-corrected, n = 3. The procedure: (§1) All applicable international, national, and/or institutional guidelines for the care and use of animals were followed. In particular, all animal experiments were carried out according to the guidelines of the Swiss Regulations for Animal Welfare. Preclinical studies have been ethically approved by the Cantonal Committee of Animal Experimentation and permitted by the responsible cantonal authorities (License N° 75743). Five-week-old female CD1/nude mice and female immunocompetent FVB mice were obtained from Charles River Laboratories (Sulzfeld, Germany) and fed with standard rodent chow ad libitum. CD1/nude were subcutaneously inoculated with HEK-ACE2 cells (6–8 × 10^6 cells in 100 µL PBS) on the right shoulder and approximately one week later with HEK-ACE (4 × 10^6 cells in 100 µL PBS) on the left shoulder. Imaging and biodistribution studies were performed 2–4 weeks later when the xenografts reached a size of 100–300 mm^3.
(§2) Biodistribution studies in xenograft-bearing mice were performed 2–4 weeks after cell inoculation. Mice were intravenously injected with [^67Ga]Ga-DOTA-DX600, [^67Ga]Ga-NODAGA-DX600, [^67Ga]Ga-HBED-CC-DX600 or [^67Ga]Ga-DOTA-BPP9a (3 MBq, 0.5 nmol, 100 µL) diluted in NaCl 0.9% containing 0.05% BSA. The mice were sacrificed 3 h after administration of the radiopeptides. Selected tissues and organs were collected, weighed and counted using a γ-counter. The results were listed as a percentage of the injected activity per gram of tissue mass (% IA/g), using counts of a defined volume of the original injection solution measured simultaneously, resulting in decay-corrected values. Statistical analysis was performed by applying a one‐way ANOVA test with a Tukey’s multiple comparisons post‐test (GraphPad Prism software, version 8.3.1).

Data set [3] concerns HEK-ACE2/HEK-ACE-xenografted mice. The data set is described as above. Type of data set: in vivo, mouse. Particulars: 3 h after injection. On the procedure:
as §1, §2

Data set [4] shares this test system. Briefly: SPECT/CT imaging and quantification of retained activity in HEK-ACE2/HEK-ACE xenografted mice. Particulars: SPECT/CT quantification, non-decay-corrected. Type of data set: in vivo, mouse. The procedure:
as §1
SPECT/CT imaging was performed using a four-head, multiplexing, multipinhole small-animal SPECT camera (NanoSPECT/CT™, Mediso Medical Imaging Systems, Budapest, Hungary). Each head was outfitted with a tungsten-based aperture of nine 1.4 mm-diameter pinholes and a thickness of 10 mm. CT scans of 7.5 min duration were followed by SPECT scans of ~ 50 min performed 1 h, 3 h and 24 h after injection of the respective radiopeptide (10 MBq, 0.5 nmol, 100 μL), diluted in NaCl 0.9% containing 0.05% BSA. During the scan, mice were anesthetized with a mixture of isoflurane and oxygen. The images were acquired using Nucline software (version 1.02, Mediso Ltd., Budapest, Hungary). The real-time CT reconstruction used a cone-beam-filtered backprojection. The reconstruction of SPECT data was performed with the HiSPECT software (version 1.4.3049, Scivis GmbH, Göttingen, Germany) using γ-energies of 93.20 keV (± 10%), 184.60 keV (± 10%) and 300.00 keV (± 10%) for gallium-67. All images were prepared using the VivoQuant post-processing software (version 3.0, inviCRO Imaging Services and Software, Boston, US). A Gauss post-reconstruction filter (full width at half maximum, 1 mm) was applied, and the scale of activity for gallium-67 was set as indicated on the SPECT/CT images. In order to estimate the wash-out of the DX600-based radiopeptides from the HEK-ACE2 xenografts and kidneys over time, the absolute amount of activity was determined in these tissues using the VivoQuant quantification tool. The accumulated activity (non-decay-corrected value in MBq) in the xenografts and kidneys, respectively, obtained at the 1 h p.i. timepoint was set as 100%. The percentage of activity retained in these tissues was determined at 3 h and 24 h p.i. based on the absolute activity determined at these timepoints.

The structures appear in SMILES notation. Where two headings read alike, the source gives them in different places. Positions of bridges follow the written chain, without caps; N, C: chain ends. Residues, ends and D or L forms follow the SMILES beside them. *: point of attachment. NODAGA = O=C(O)CN1CCN(CC(=O)O)CCN(C(CCC(=O)*)C(=O)O)CC1

As to `CC(=O)N[C@@H](CCCCNC(=O)CCC(C(=O)O)N1CCN(CC(=O)O)CCN(CC(=O)O)CC1)C(=O)NCC(=O)N[C@@H](CC(=O)O)C(=O)N[C@@H](Cc1ccc(O)cc1)C(=O)N[C@@H](CO)C(=O)N[C@@H](Cc1c[nH]cn1)C(=O)N[C@H]1CSSC[C@@H](C(=O)N[C@H](C(=O)N[C@@H](Cc2ccc(O)cc2)C(=O)N2CCC[C@H]2C(=O)N[C@@H](CC(=O)O)C(=O)N2CCC[C@H]2C(=O)N[C@@H](CCC(=O)O)C(=O)NCC(=O)NCC(=O)NCC(N)=O)[C@@H](C)O)NC(=O)[C@H](CCCCN)NC(=O)[C@H](Cc2c[nH]c3ccccc23)NC(=O)[C@H](Cc2c[nH]c3ccccc23)NC(=O)[C@@H]2CCCN2C(=O)[C@H](Cc2ccc(O)cc2)NC(=O)[C@H](Cc2ccc(O)cc2)NC(=O)[C@H](CCCNC(=N)N)NC(=O)[C@H](CC(C)C)NC(=O)[C@@H]2CCCN2C(=O)[C@H](CO)NC1=O` (stereo partly shown) [[^67Ga]Ga-NODAGA-DX600, metal not drawn] (Ac-K(NODAGA)GDYSHCSPLRYYPWWKCTYPDPEGGG-NH2; disulfide 7-18), the “Intact radiopeptide in human blood plasma” value in data set [1] was more than 99%. Moreover, the tissue uptake at 3 h in data set [2] (HEK-ACE2 xenograft, read-out: Biodistribution: ACE2 xenograft (HEK-ACE2)) was 15.5 ± 2.2 %ID/g; in data set [2] (blood, read-out: Biodistribution: blood), 0.02 ± 0.01 %ID/g; in data set [2] (bone, read-out: Biodistribution: bone), 0.04 ± 0.01 %ID/g; in data set [2] (heart, read-out: Biodistribution: heart), 0.04 ± 0.01 %ID/g; in data set [2] (intestines, read-out: Biodistribution: intestines) it was 0.13 ± 0.07 %ID/g; in data set [2] (kidneys, read-out: Biodistribution: kidneys (renal retention)), approximately 24 %ID/g. For the same compound, the tissue uptake at 3 h worked out at 0.25 ± 0.04 %ID/g in data set [2] (liver, read-out: Biodistribution: liver); 0.08 ± 0.01 %ID/g in data set [2] (lung, read-out: Biodistribution: lung); 0.02 ± 0.01 %ID/g in data set [2] (muscle, read-out: Biodistribution: muscle); 0.05 ± 0.01 %ID/g in data set [2] (salivary glands, read-out: Biodistribution: salivary glands); 0.08 ± 0.01 %ID/g in data set [2] (spleen, read-out: Biodistribution: spleen); 0.06 ± 0.03 %ID/g in data set [2] (stomach, read-out: Biodistribution: stomach). In data set [3], the HEK-ACE2 xenograft-to-kidney ratio was found to be 0.67 ± 0.16. The figures for the “Activity retained in the kidneys relative to the 1 h p.i.-timepoint” value in data set [4] (3 h p.i.) and in data set [4] (24 h p.i.) were ~ 85% and 35–45%, respectively.

The record behind these values is PMC10113987, “A tool for nuclear imaging of the SARS-CoV-2 entry receptor: molecular model and preclinical development of ACE2-selective radiopeptides” (EJNMMI Research, 2023).
